“And” between values parts separate entries of the source, which are not always exact repeats. Equal entries are not always repeated. Where two headings read alike, the source gives them in different places.
How the values were obtained:
[1] = system: PC-3 (human prostate cancer); experiment: Sulforhodamine B (SRB) cytotoxicity assay, PC-3; type: cell-based
Description: (§1) The natural products were screened in vitro against the following human cancer cell lines: human mammary adenocarcinoma (MCF-7), human chronic myelogenous leukemia (K562), human glioblastoma (U251), human lung adenocarcinoma (SKLU-1), human colon cancer (HCT-15), human prostate cancer (PC-3), healthy gingival human fibroblasts (FGH), and normal monkey kidney cell lines, which were supplied by the National Cancer Institute (NCI, USA) and American Type Culture Collection (ATTC). The human tumor cytotoxicity was determined using the protein-binding dye sulforhodamine B (SRB) in a microculture assay to measure cell growth, as described in the protocol established by the NCI [30]. The cell lines were cultured in RPMI-1640 medium supplemented with 10% fetal bovine serum, 2 mM L-glutamine, 10,000 units/mL penicillin G sodium, 10,000 μg/mL streptomycin sulfate, and 25 μg/mL amphotericin B (Gibco), and 1% non-essential amino acids (Gibco). They were maintained at 37 °C in a humidified atmosphere with 5% CO2. The viability of the cells used in the experiments exceeded 95%, as determined with trypan blue.
(§2) Cytotoxicity after treatment of the tumors cells and normal cells with the test compounds were determined using the protein-binding dye sulforhodamine B (SRB) in a microculture assay to measure cell growth. The cells were removed from the tissue culture flasks by treatment with trypsin, and diluted with fresh media. Of these cell suspensions, 100 μL containing 5000–10,000 cells per well were pipetted into 96-well microtiter plates (Costar) and the material was incubated at 37 °C for 24 h in a 5% CO2 atmosphere. Subsequently, 100 μL of a solution of the compound obtained by diluting the stocks were added to each well. The cultures were exposed to the compound for 48 h. After the incubation period, cells were fixed to the plastic substratum by the addition of 50 μL of cold 50% aqueous trichloroacetic acid. The plates were incubated at 4 °C for 1 h, washed with tap water, and air-dried. The trichloroacetic-acid-fixed cells were stained by the addition of 0.4% SRB. The free SRB solution was then removed by washing with 1% aqueous acetic-acid. The plates were air-dried, and the bound dye was dissolved by the addition of 10 mM unbuffered Tris base (100 μL). The plates were placed on a shaker for 10 min, and the absorption was determined at 515 nm using an ELISA plate reader (Bio-Tex Instruments).

[2] = system: K562 (human chronic myelogenous leukemia); experiment: Sulforhodamine B (SRB) cytotoxicity assay, K562; type: cell-based; conditions: Homo sapiens, K562
Description: as §1, §2

[3] = system: MCF-7 (human mammary adenocarcinoma); experiment: Sulforhodamine B (SRB) cytotoxicity assay, MCF-7; type: cell-based; conditions: for inhibition at 50 µM: primary screening at 50.0 μM
Description: as §1, §2

[4] = system: U251 (human glioblastoma); experiment: Sulforhodamine B (SRB) cytotoxicity assay, U251; type: cell-based
Description: as §1, with “CO2.” for “CO2. The viability of the cells used in the experiments exceeded 95%, as determined with trypan blue.”
as §2

[5] = system: COS-7 normal monkey kidney; experiment: Sulforhodamine B (SRB) cytotoxicity assay, COS-7 normal cell line; type: cell-based; conditions: Primates, mean ± SD
Description: as §1
as §2, with “The plates were incubated at 4 °C for 1 h, washed with tap water, and air-dried. The trichloroacetic-acid-fixed cells were stained by the addition of 0.4% SRB. The free SRB solution was then removed by washing with 1% aqueous acetic-acid. The plates were air-dried, and the bound dye was dissolved by the addition of 10 mM unbuffered Tris base (100 μL).” left out

[6] = system: HCT-15 (human colon cancer); experiment: Sulforhodamine B (SRB) cytotoxicity assay, HCT-15; type: cell-based
Description: as §1, §2

[7] = system: SKLU-1 (human lung adenocarcinoma); experiment: Sulforhodamine B (SRB) cytotoxicity assay, SKLU-1; type: cell-based; conditions: for IC50: SRB assay, 48 h exposure, mean ± SD, read-out: IC50 antiproliferative activity, SKLU-1; for inhibition at 50 µM: primary screening at 50.0 μM, NC = No cytotoxic
Description: as §1, §2

[8] = Scavenging activity on free radical DPPH; conditions: 30 min, 37 °C; for IC50: DPPH 100 μM, mean ± SEM; for DPPH inhibitory effect (%): at 100 μM
Method: Free radical scavenging activity was measured using an adapted method of Mellors and Tappel. The test was carried out in 96-well microplates. A 50-μL aliquot of the solution of the test compound was mixed with 150 μL of an ethanol solution of DPPH (final concentration 100 μM). The mixture was incubated at 37 °C for 30 min, and the absorbance was then measured at 515 nm using a BioTek microplate reader SYNERGY HT. The percent inhibition was determined by comparison with a 100-μM DPPH ethanol blank solution.

[9] = system: six human cancer cell lines (U251, PC-3, K562, HCT-15, MCF-7, SKLU-1) and FGH; experiment: SRB primary screening, whole panel (result in words); type: cell-based; conditions: primary screening at 50.0 μM, complete panel
Method: The same biological activity was also recently described for icetexane-derivatives isolated from Premna and Amentotaxus species. […] These facts prompted us to assay diterpenoids 3, 4, 6–8 and 10 for antiproliferative activity using six human cancer cell lines (U251, PC-3, K562, HCT-15, MCF-7, and SKLU-1), and a primary culture of healthy gingival human fibroblasts (FGH) at 1.0 or 50.0 μM (when cytotoxicity at 50.0 μM results were too high). […] Overall, the antiproliferative activity determined for 7 was lower than that observed for 6.
as §1
Cytotoxicity after treatment of the tumors cells and normal cells with the test compounds were determined using the protein-binding dye sulforhodamine B (SRB) in a microculture assay to measure cell growth. […] The plates were placed on a shaker for 10 min, and the absorption was determined at 515 nm using an ELISA plate reader (Bio-Tex Instruments).

[10] = system: TPA-induced ear edema; experiment: TPA-induced ear edema test in mice; type: in vivo; conditions: mice CD-1, 1.0 μmol ear^-1 topical, 4 h after TPA, mean ± SEM; for Inhibition of Edema (%): NA = Non-active
Method: Male CD-1 mice weighing 25–30 g were maintained under standard laboratory conditions in the animal house (temperature 24 ± 2 °C) in a 12/12 h light/dark cycle, fed a laboratory diet and water ad libitum, following the Mexican official norm NOM-062-Z00-1999.
The TPA-induced ear edema assay in mice was performed as reported in reference. A solution of TPA (2.5 μg) in ethanol (10 μL) was applied topically to both faces (5 μL each ear) of the right ear of the mice, 10 min after solutions of the test substances in their respective solvents were applied (10 μL each face). The left ear received ethanol (10 μL) first, followed by 20 μL of the respective solvent. The mice were killed with CO2 four hours later. A 7-mm diameter plug was removed from each ear. The swelling was assessed as the difference in weight between the left and the right ear. Control animals received the correspondent solvent in each case. Edema inhibition (EI %) was calculated by the equation EI % = 100 − (B × 100/A), where A is the edema induced by TPA alone and B is the edema induced by TPA plus the sample. Indomethacin and celecoxib were used as reference compounds.

[11] = Homo sapiens, MCF7, mean n = 2, NC = No cytotoxic, read-out: Antiproliferative activity (%), MCF-7
[12] = Homo sapiens, SK-LU-1, mean n = 2, read-out: Antiproliferative activity (%), SKLU-1
[13] = primary screening at 1.0 μM, mean n = 2

In the case of COc1cccc2c1C(=O)c1c(O)c3c(c(O)c1C2=O)C[C@@](O)(C(=O)CO)C[C@@H]3O[C@H]1C[C@H](N)[C@H](O)[C@H](C)O1 [Adriamicyn, adriamycin, reference compound], the inhibition at 0.5 µM ([1]; positive control at 0.5 μM, mean n = 2, read-out: Antiproliferative activity (%), PC-3) is reported as 85.2%, the IC50 ([2]; SRB assay, 48 h exposure, mean ± SD, read-out: IC50 antiproliferative activity, K562) is reported as 0.2 ± 0.02 µM and the inhibition at 0.5 µM ([2]; positive control at 0.5 μM, mean n = 2, read-out: Antiproliferative activity (%), K562) is reported as 100%. For the same molecule, the IC50 ([3]; Homo sapiens, MCF7, SRB assay, 48 h exposure, mean ± SD, read-out: IC50 antiproliferative activity, MCF-7) was 0.23 ± 0.02 µM, the inhibition at 0.5 µM ([3]; Homo sapiens, MCF7, positive control at 0.5 μM, mean n = 2, read-out: Antiproliferative activity (%), MCF-7) was 99.1% and the IC50 ([4]; Homo sapiens, U-251, 48 h, SRB assay, 48 h exposure, mean ± SD, read-out: IC50 antiproliferative activity, U251) was 0.08 ± 0.003 µM. The inhibition at 0.5 µM ([4]; Homo sapiens, U-251, positive control at 0.5 μM, mean n = 2, read-out: Antiproliferative activity (%), U251) was 96%, the IC50 [5] was 0.25 ± 0.009 µM and the inhibition at 0.5 µM ([6]; positive control at 0.5 μM, mean n = 2, read-out: Antiproliferative activity (%), HCT-15) was 86.9%. The IC50 ([7]; Homo sapiens, SK-LU-1, 48 h) was 0.05 ± 0.003 µM and the inhibition at 0.5 µM ([7]; Homo sapiens, SK-LU-1, positive control at 0.5 μM, mean n = 2, read-out: Antiproliferative activity (%), SKLU-1) was 90%.
O=c1c(O)c(-c2ccc(O)c(O)c2)oc2cc(O)cc(O)c12 [quercetin, reference compound] gave an IC50 [8] of 10.9 ± 0.5 µM.
With CC(C)C1=C(O)C(=O)C2=C(C1=O)C(O)CC1C3(C)CCCC21C(O)OC3 (centres unmarked) [Compound 10, conacytone] the “DPPH inhibitory effect (%)” value [8] was 4.8%, the “Toxicity to the complete panel (in words)” value [9] was “no toxicity” and the inhibition at 50 µM [3, 11] was 14.7%. For the same molecule, the “Edema” value [10] was 11.77 ± 047 mg, the “Inhibition of Edema (%)” value [10] was 25.4 ± 3.0% and 25.37 ± 2.98 % and the inhibition at 50 µM [7, 12] was 11.8%.
In the case of Cc1ccc(-c2cc(C(F)(F)F)nn2-c2ccc(S(N)(=O)=O)cc2)cc1 [Celecoxib, celecoxib, reference compound], the “Edema” value [10] is reported as 6.94 ± 1.56 mg, the “Inhibition of Edema (%)” value [10] is reported as 54.34 ± 10.28% and the “Inhibition of Edema (%)” value ([10]; listed as celecoxib) is reported as 54.3 ± 10.3%.
For CC(C)C1=C(O)C(=O)C2=CC3=CCCC4(C)C(=O)OC(C=C2C1=O)C34 (centres unmarked) [Compound 6, Anastomosine], the inhibition at 1 µM ([1]; primary screening at 1.0 μM, mean n = 2, read-out: Antiproliferative activity (%), PC-3) was 82.3%, the inhibition at 1 µM ([2]; primary screening at 1.0 μM, mean n = 2, read-out: Antiproliferative activity (%), K562) was 76.4% and the “DPPH inhibitory effect (%)” value [8] was 8.2%. The inhibition at 1 µM ([3]; Homo sapiens, MCF7, primary screening at 1.0 μM, mean n = 2, NC = No cytotoxic, read-out: Antiproliferative activity (%), MCF-7) was 51.3%, the “Antiproliferative activity (%), MCF-7” value ([3]; primary screening at 1.0 μM, mean n = 2, NC = No cytotoxic) was “moderately toxic” and the “Edema” value [10] was 15.97 ± 0.61 mg. The “Inhibition of Edema (%)” value [10] was “non-active”, the inhibition at 1 µM ([4]; Homo sapiens, U-251, primary screening at 1.0 μM, mean n = 2, read-out: Antiproliferative activity (%), U251) was 98.4% and the “Antiproliferative activity (%), U251” value [4, 13] was “very toxic”. For the same molecule, the “SI (selectivity index), U251” value ([4]; quotient of IC50 of COS-7 / IC50 of U251) was 2.3, the IC50 [5] was 0.61 ± 0.007 µM and the inhibition at 1 µM ([6]; primary screening at 1.0 μM, mean n = 2, read-out: Antiproliferative activity (%), HCT-15) was 85.6%. For the same molecule, the melting point was 220 to 224 °C, the IC50 ([7]; Homo sapiens, SK-LU-1, 48 h) was 0.82 ± 0.06 µM and the inhibition at 1 µM ([7]; Homo sapiens, SK-LU-1, primary screening at 1.0 μM, mean n = 2, read-out: Antiproliferative activity (%), SKLU-1) was 100%. For the same molecule, the IC50 [7] was 0.46 ± 0.05 µM, the “Antiproliferative activity (%), SKLU-1” value [7, 13] was “very toxic” and the “SI (selectivity index), SKLU-1” value ([7]; quotient of IC50 of COS-7 / IC50 of SKLU-1) was 1.3.
CC(C)c1c(O)c(O)c2c(c1O)C(=O)CC1C3(CCCC1(C)C(=O)O3)C2 (centres unmarked) [Compound 4, 6,7,11,14-Tetrahydro-7-oxoicetexone] gave an inhibition at 50 µM ([1]; primary screening at 50.0 μM, mean n = 2, NC = No cytotoxic, read-out: Antiproliferative activity (%), PC-3) of 80.3%, an inhibition at 50 µM ([2]; primary screening at 50.0 μM, mean n = 2, NC = No cytotoxic, read-out: Antiproliferative activity (%), K562) of 100% and an IC50 [8] of 98.4 ± 3.3 µM. For the same molecule, the “DPPH inhibitory effect (%)” value [8] was 64.5%, the “Toxicity to the complete panel (in words)” value [9] was “very toxic” and the inhibition at 50 µM [3, 11] was 99%. The inhibition at 50 µM ([4]; Homo sapiens, U-251, primary screening at 50.0 μM, mean n = 2, NC = No cytotoxic, read-out: Antiproliferative activity (%), U251) was 100%, the inhibition at 50 µM ([6]; primary screening at 50.0 μM, mean n = 2, NC = No cytotoxic, read-out: Antiproliferative activity (%), HCT-15) was 76.7% and the melting point was 130 to 135 °C. For the same molecule, the inhibition at 50 µM [7, 12] was 96.9%.
In the case of Cc1c(C)c2c(c(C)c1O)CC[C@@](C)(CCC[C@H](C)CCC[C@H](C)CCCC(C)C)O2 [α-tocopherol, reference compound], the IC50 [8] is reported as 31.7 ± 1.04 µM.
For COc1ccc2c(c1)c(CC(=O)O)c(C)n2C(=O)c1ccc(Cl)cc1 [Indometacin, Indomethacin, reference compound], the “Edema” value [10] was 2.88 ± 0.73 mg, the “Inhibition of Edema (%)” value [10] was 78.76 ± 7.68 % and the “Inhibition of Edema (%)” value ([10]; listed as indomethacine) was 78.8 ± 7.7%.
